# Patent publication US4563467A, “Derivatives of N-iminopyridinium betaines having anti-hypertensive and salidiuretic activity and their preparation” (Provesan S.A., priority 1983, dated 1986)
# Where a name gives a salt, the structure may show the parent alone. Read-outs that look alike come from different tables or passages of the source.
# What was measured:
# [1] = Diuretic activity (method of Taylor and Topliss): elimination of urine and urine parameters over 8 hours; format: in vivo, Male Sprague-Dawley (HC/CFY) rats; settings: rat; for Elimination in the urine: Cl / Elimination in the urine: K / Elimination in the urine: Na / Osmotic pressure of urine / Urine pH / Elimination of urine, 1 h / Elimination of urine, 2 h / Elimination of urine, 3 h / Elimination of urine, 4 h / Elimination of urine, 6 h / Elimination of urine, 8 h: 40 mg/kg; for Elimination in the urine: Cl / Elimination in the urine: K / Elimination in the urine: Na / Osmotic pressure of urine / Urine pH: over 8 hours; for Elimination of urine, 1 h / Elimination of urine, 2 h / Elimination of urine, 3 h / Elimination of urine, 4 h / Elimination of urine, 6 h / Elimination of urine, 8 h: probang; for ED50: po, from regression of log dose against percentage effect; for Elimination of urine, 8 h / ED50: 8 h
# Protocol: ACTIVITY Method of R. M. Taylor and […]. Med. Pharm. Chem. 1962, 4, 312 Male Sprague-Dawley (HC/CFY) rats weighting between 150 and 200 grams are used. The animals are kept without food and water for 16 hours before the start of the test. The products are administered as a suspension in a 0.5% strength carboxymethylcellulose suspension in a 0.9% strength sodium chloride solution, using a probang, the amount administered being 50 ml/kg of body weight. […] The following parameters are determined in the urine: volume (ml/kg); sodium and potassium (milliequivalents/kg/8 h) (flame photometer); chloride (milliequivalents/kg/8 h) (chloride-meter); pH/8 h (pH-meter) and osmotic pressure (osmotic millimols/kg/8 h) (osmometer). The comparsion animals are given the 0.5% strength carboxymethylcellulose suspension in a 0.9% strength sodium chloride solution in an amount of […] of body weight.
# [2] = Acute toxicity, oral, mouse; format: in vivo, CFLP-RE albino mice
# Protocol: The product is administered orally in suspension in 5% strength gum arabic to CFLP-RE albino mice weighing 20-25 g and to CFY-RE Sprague-Dawley rats weighing 125-175 g. The volume administered is 25 ml/kg in the mouse except for the maximum dose of 12,800 mg/kg where a volume of 50 ml/kg is administered, and 10 ml/kg in the rat except for the maximum dose of 12,800 mg/kg where a volume of 30 ml/kg is administered.
# It was impossible to determine the 50 percent lethal dose since no deaths occurred.
# [3] = read-out: ED50, osmotic pressure (m osmol/kg/8 h)
# [4] = read-out: ED50, volume of urine (ml/kg/8 h)
Compound,Elimination in the urine: Cl [1],Elimination in the urine: K [1],Elimination in the urine: Na [1],Osmotic pressure of urine [1],Urine pH [1],"Elimination of urine, 1 h [1]","Elimination of urine, 2 h [1]","Elimination of urine, 3 h [1]","Elimination of urine, 4 h [1]","Elimination of urine, 6 h [1]","Elimination of urine, 8 h [1]","ED50 [1, 3]","ED50 [1, 4]","Mortality ([2]; female, 400 mg/kg)","Mortality ([2]; female, 800 mg/kg)","Mortality ([2]; male, 400 mg/kg)","Mortality ([2]; male, 800 mg/kg)"
"Cc1cc(C)[n+]([N-]C(=O)c2cc(S(N)(=O)=O)c(Cl)cc2NCc2ccco2)c(C)c1 [Example 5, 1-{[4-chloro-2-(2-furylmethylamino)-5-sulfamylbenzoyl]-amino}-2,4,6-trimethylpyridinium hydroxide inner salt]",6.2 milliequivalents/kg/8 h,1.3 milliequivalents/kg/8 h,3.0 milliequivalents/kg/8 h,16.6 osmotic millimols/kg/8 h,6.1,1.1 mL/kg,3.4 mL/kg,8.0 mL/kg,12.5 mL/kg,18.4 mL/kg,20.7 mL/kg,–,–,–,–,–,–
"Cc1cc(C)[n+](NC(=O)c2ccc(Cl)c(S(N)(=O)=O)c2)c(C)c1.[Cl-] [Example 7, 1-[(4-chloro-3-sulfamylbenzoyl)-amino]-2,4,6-trimethylpyridinium chloride]",9.3 milliequivalents/kg/8 h,1.6 milliequivalents/kg/8 h,–,31.0 osmotic millimols/kg/8 h,6.3,6.2 mL/kg,18.6 mL/kg,28.4 mL/kg,36.1 mL/kg,47.3 mL/kg,52.4 mL/kg,–,–,–,–,–,–
"Cc1cc(C)[n+](NC(=O)c2cc(S(N)(=O)=O)c(Cl)cc2NCc2ccco2)c(C)c1.Cl.[Cl-] [Example 8, 1-{[4-chloro-2-(2-furylmethylamino)-5-sulfamylbenzoyl]-amino}-2,4,6-trimethylpyridinium chloride hydrochloride]",7.2 milliequivalents/kg/8 h,1.2 milliequivalents/kg/8 h,5.9 milliequivalents/kg/8 h,23.4 osmotic millimols/kg/8 h,6.7,0.0 mL/kg,11.9 mL/kg,19.6 mL/kg,28.5 mL/kg,34.4 mL/kg,39.2 mL/kg,–,–,–,–,–,–
"NS(=O)(=O)c1cc(C(=O)[N-][n+]2ccccc2)ccc1Cl [Example 1, 1-[(4-chloro-3-sulfamylbenzoyl)-amino]pyridinium hydroxide inner salt]",9.2 milliequivalents/kg/8 h,1.5 milliequivalents/kg/8 h,8.3 milliequivalents/kg/8 h,25.5 osmotic millimols/kg/8 h,6.6,7.3 mL/kg,15.2 mL/kg,27.6 mL/kg,35.4 mL/kg,40.5 mL/kg,44.5 mL/kg,1.9 mg/kg,4.1 mg/kg,–,–,–,–
"Cc1cc(C)[n+]([N-]C(=O)c2ccc(Cl)c(S(N)(=O)=O)c2)c(C)c1 [Example 2, 1-[(4-chloro-3-sulfamylbenzoyl)-amino]-2,4,6-trimethylpyridinium hydroxide inner salt]",11.8 milliequivalents/kg/8 h,1.7 milliequivalents/kg/8 h,9.1 milliequivalents/kg/8 h,29.7 osmotic millimols/kg/8 h,6.0,10.4 mL/kg,22.3 mL/kg,30.2 mL/kg,36.0 mL/kg,41.5 mL/kg,45.6 mL/kg,1.2 mg/kg,4.7 mg/kg,0/4,0/4,0/4,0/4
"NS(=O)(=O)c1cc(C2(O)NC(=O)c3ccccc32)ccc1Cl (stereo not shown) [Chlortalidone, reference compound]",10.8 milliequivalents/kg/8 h,1.9 milliequivalents/kg/8 h,9.3 milliequivalents/kg/8 h,29.9 osmotic millimols/kg/8 h,6.6,8.7 mL/kg,21.0 mL/kg,30.9 mL/kg,37.6 mL/kg,45.6 mL/kg,49.8 mL/kg,7.7 mg/kg,6.9 mg/kg,–,–,–,–
"NC(=O)c1ccc[n+]([N-]C(=O)c2ccc(Cl)c(S(N)(=O)=O)c2)c1 [Example 4, 1-[(4-chloro-3-sulfamylbenzoyl)-amino]-3-carbamylpyridinium hydroxide inner salt]",7.0 milliequivalents/kg/8 h,1.1 milliequivalents/kg/8 h,6.6 milliequivalents/kg/8 h,20.8 osmotic millimols/kg/8 h,6.2,5.8 mL/kg,8.6 mL/kg,19.5 mL/kg,24.2 mL/kg,31.1 mL/kg,37.5 mL/kg,–,–,–,–,–,–
"Cc1cccc(C)[n+]1[N-]C(=O)c1ccc(Cl)c(S(N)(=O)=O)c1 [Example 3, 1-[(4-chloro-3-sulfamylbenzoyl)-amino]-2,6-dimethylpyridinium hydroxide inner salt]",11.7 milliequivalents/kg/8 h,1.8 milliequivalents/kg/8 h,9.5 milliequivalents/kg/8 h,34.2 osmotic millimols/kg/8 h,6.1,8.4 mL/kg,22.9 mL/kg,31.9 mL/kg,36.7 mL/kg,45.2 mL/kg,50.7 mL/kg,2.1 mg/kg,4.6 mg/kg,–,–,–,–
"NS(=O)(=O)c1cc(C(=O)[N-][n+]2c(-c3ccccc3)cc(-c3ccccc3)cc2-c2ccccc2)ccc1Cl [Example 6, 1-[(4-chloro-3-sulfamylbenzoyl)-amino]2,4,6-triphenylpyridinium hydroxide inner salt]",8.1 milliequivalents/kg/8 h,1.1 milliequivalents/kg/8 h,6.6 milliequivalents/kg/8 h,25.3 osmotic millimols/kg/8 h,6.0,6.9 mL/kg,14.2 mL/kg,19.4 mL/kg,22.2 mL/kg,26.0 mL/kg,27.4 mL/kg,–,–,–,–,–,–
"NS(=O)(=O)c1cc(C(=O)N[n+]2c(-c3ccccc3)cc(-c3ccccc3)cc2-c2ccccc2)ccc1Cl.[Cl-] [Example 9, 1-[(4-chloro-3-sulfamylbenzoyl)-amino]-2,4,6-triphenylpyridinium chloride]",7.5 milliequivalents/kg/8 h,1.2 milliequivalents/kg/8 h,6.0 milliequivalents/kg/8 h,25.1 osmotic millimols/kg/8 h,6.2,5.2 mL/kg,12.6 mL/kg,16.8 mL/kg,19.0 mL/kg,21.5 mL/kg,25.3 mL/kg,–,–,–,–,–,–
